Drawing on patent US9920010B2, “CXCR7 receptor modulators” (IDORSIA PHARMACEUTICALS LTD, priority 2013, dated 2018), this text covers EC50 for 25 compounds.

The term EC50 denotes the concentration that produces a half-maximal response.

For this experiment, the target named is T1, CXCR7 (Homo sapiens, UniProt P25106).
T1 construct: host or cells: CHO-K1 (PathHunter CHO-K1 CXCR7 b-arrestin cell line, stably transfected)
As to the kind of experiment: PathHunter CHO-K1 CXCR7 b-arrestin recruitment assay (CXCR7 agonistic activity). Type of experiment: cell-based. The settings on record: PathHunter CHO-K1 CXCR7 b-arrestin cell line. Here is the method:
The CXCl12 receptor and CXCR7 agonistic activities of the compounds of formula (I) are determined in accordance with the following experimental method.
The assay is using the PathHunter™ CHO-K1 CXCR7 b-arrestin cell line from DiscoverX. The system is based on the Enzyme Fragment Complementation Technology. Two complementing fragments of the b-galactosidase enzyme are expressed within stably transfected cells. The larger portion of b-gal, termed EA for Enzyme Acceptor, is fused to the C-terminus of b-arrestin 2. The smaller fragment, termed ProLink™ tag, is fused to CXCR7 at the C-terminus. Upon activation, b-arrestin is recruited which forces the interaction of ProLink and EA, allowing complementation of the two fragments of b-gal and the formation of a functional enzyme which is capable of hydrolysing the substrate and generating a chemiluminescent signal.
CHO-K1 CXCR7 b-arrestin cells are detached from culture dishes with a cell dissociation buffer (Invitrogen, #13151-014) and collected in growing medium (F12 HAMS 90% (v/v)/FCS 10% (v/v), Penicillin/streptomycin 1% (v/v)). 5000 cells per well (in 20 μl) are seeded in a 384 well plate (white-walled, clear bottom; BD Falcon #353274). The plate is incubated at 37° C./5% CO2 for 24 hours. Medium is then replaced by 20 μl OPTIMEM (Invitrogen #31985) for 3 to 4 hours. Test compounds are dissolved at 10 mM in DMSO and serially diluted in DMSO to 200× of the final concentration for dose response curves. Compounds are then diluted 1:33.3 in HBSS1×. 5 μl/well of HBSS1×/20 mM HEPES/0.2% BSA are added to the assay plate followed by addition of 5 μl/well of diluted compounds. CXCL12 (Peprotech #300-28A) may be used as a reference agonist. The plate is incubated for 90 minutes at 37° C. 12 μl of detection reagent (Path Hunter Detection Kit, DiscoveRx, #93-0001) is transferred to the assay plate and to the plate is incubated for 1 hour at room temperature. Luminescent signal is read in a microplate reader (FLUOstar Optima, bmg). The calculated EC50 values may fluctuate depending on the daily cellular assay performance. Fluctuations of this kind are known to those skilled in the art. Average EC50 values from several measurements are given as geometric mean values.
(Arrestin recruitment assays detect the binding of arrestin to an activated receptor.)

T1 sequence (P25106 whole entry): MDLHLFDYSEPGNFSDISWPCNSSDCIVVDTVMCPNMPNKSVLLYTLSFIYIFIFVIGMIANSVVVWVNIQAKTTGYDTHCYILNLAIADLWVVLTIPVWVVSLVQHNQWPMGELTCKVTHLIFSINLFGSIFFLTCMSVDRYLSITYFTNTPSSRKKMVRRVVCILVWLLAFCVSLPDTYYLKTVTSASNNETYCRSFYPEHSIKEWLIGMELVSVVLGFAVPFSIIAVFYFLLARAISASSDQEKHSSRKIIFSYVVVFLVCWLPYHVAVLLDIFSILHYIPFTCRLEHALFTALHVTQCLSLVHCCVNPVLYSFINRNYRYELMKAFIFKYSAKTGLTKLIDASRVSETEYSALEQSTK
T1 sequence (P32121 whole entry partner): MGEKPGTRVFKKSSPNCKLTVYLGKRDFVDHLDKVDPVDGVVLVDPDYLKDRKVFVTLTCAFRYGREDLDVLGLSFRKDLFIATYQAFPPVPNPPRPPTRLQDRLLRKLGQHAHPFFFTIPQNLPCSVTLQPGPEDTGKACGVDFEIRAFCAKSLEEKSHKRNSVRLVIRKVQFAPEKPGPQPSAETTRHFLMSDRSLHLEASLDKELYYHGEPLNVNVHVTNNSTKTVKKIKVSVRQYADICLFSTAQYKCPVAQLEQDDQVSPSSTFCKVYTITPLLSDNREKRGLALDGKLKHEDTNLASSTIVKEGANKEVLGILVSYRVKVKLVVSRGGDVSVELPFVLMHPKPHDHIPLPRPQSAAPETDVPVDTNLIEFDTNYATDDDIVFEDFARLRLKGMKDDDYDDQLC

Take `CN(C)CCN(Cc1ccccc1)C(=O)/C=C/c1cccc2c1CCN(C)C2` [compound 142, (E)-N-Benzyl-N-(2-dimethylamino-ethyl)-3-(2-methyl-1,2,3,4-tetrahydro-isoquinolin-5-yl)-acrylamide]: the response was half-maximal at 23 nM (EC50).

With `CCN1CCc2cccc(NCC(=O)N(CCc3ccccc3C(F)(F)F)CCN(C)C)c2C1` [compound 538], the EC50 worked out at 155 nM.

`CCN1CCc2cccc(NCC(=O)N(CCc3ccccc3C)CCN(C)C)c2C1` [compound 537] had a half-maximal effective concentration (EC50) of 217 nM.

In turn, `CCCC(=O)N1CCc2c(cccc2NCC(=O)N(CCNC)Cc2ncccc2C(F)(F)F)C1` [compound 411, 2-(2-Butyryl-1,2,3,4-tetrahydro-isoquinolin-5-ylamino)-N-(2-methylamino-ethyl)-N-(3-trifluoromethyl-pyridin-2-ylmethyl)-acetamide] came in with a concentration for a half-maximal effect (EC50) of 15 nM.

In turn, `CNCCN(Cc1ncccc1C(F)(F)F)C(=O)CNc1cccc2c1CCN(C(=O)CC(C)C)C2` [compound 416] came in with an EC50 of 86 nM.

Regarding `CN(C)CCN(Cc1ccccc1)C(=O)COc1cccc2c1CCN(CC1CC1)C2` [compound 166, N-Benzyl-2-(2-cyclopropylmethyl-1,2,3,4-tetrahydro-isoquinolin-5-yloxy)-N-(2-dimethylamino-ethyl)-acetamide], the midpoint of the response, the EC50, lay at 6 nM.

With `CCN1Cc2c(NCC(=O)N(CCN(C)C)Cc3ccccc3Cl)cccc2C(C)(C)C1` [compound 196], the EC50 came out at 264 nM.

On to `CCC(=O)N1CCc2c(cccc2NCC(=O)N(CCCN(C)C)Cc2ccccc2)C1` [Example 13, N-Benzyl-N-(3-dimethylamino-propyl)-2-(2-propionyl-1,2,3,4-tetrahydro-isoquinolin-5-ylamino)-acetamide], for which the response was half-maximal at 37 nM (EC50).

Compound `CC1c2cccc(NCC(=O)N(CCN(C)C)Cc3ccccc3C(F)(F)F)c2CCN1CC1CC1` (single isomer, unassigned) [Example 211a, (S)- or (R)-2-((2-(Cyclopropylmethyl)-1-methyl-1,2,3,4-tetrahydroisoquinolin-5-yl)amino)-N-(2-(dimethylamino)ethyl)-N-(2-(trifluoromethyl)benzyl)acetamide] returned an EC50 of 1 nM.

As for `CN(C)CCN(Cc1ccccc1OC(F)(F)F)C(=O)CNc1cccc2c1CN(CC1CC1)CC2` [compound 472, 2-(2-Cyclopropylmethyl-1,2,3,4-tetrahydro-isoquinolin-8-ylamino)-N-(2-dimethylamino-ethyl)-N-(2-trifluoromethoxy-benzyl)-acetamide], the EC50 amounted to 21 nM.

As for `CN(C)CCN(Cc1ccccc1C(F)(F)F)C(=O)CNc1cccc2c1CCN(CCF)C2` [Example 286, N-(2-Dimethylamino-ethyl)-2-[2-(2-fluoro-ethyl)-1,2,3,4-tetrahydro-isoquinolin-5-ylamino]-N-(2-trifluoromethyl-benzyl)-acetamide], the EC50 worked out at 37 nM.

For the compound `COCCN1CCc2c(/C=C/C(=O)N(Cc3ccccc3C(F)(F)F)CC3(C)COC3)cccc2C1` [Example 324, (E)-3-[2-(2-Methoxy-ethyl)-1,2,3,4-tetrahydro-isoquinolin-5-yl]-N-(3-methyl-oxetan-3-ylmethyl)-N-(2-trifluoromethyl-benzyl)-acrylamide], the concentration giving a half-maximal response (EC50) was found to be 243 nM.

In turn, `CC(C)N1CCc2cccc(NCC(=O)N(CCN(C)C)Cc3ccccc3)c2C1` [compound 186] showed a concentration giving a half-maximal response (EC50) of 91 nM.

For the compound `CC(C)(C)OC(=O)N1[C@H](CN(Cc2ccccc2C(F)(F)F)C(=O)CNc2cccc3c2CCN(CC2CC2)C3)COC1(C)C` [Example 84, (R)-4-{[[2-(2-Cyclopropylmethyl-1,2,3,4-tetrahydro-isoquinolin-5-ylamino)-acetyl]-(2-trifluoromethyl-benzyl)-amino]-methyl}-2,2-dimethyl-oxazolidine-3-carboxylic acid tert-butyl ester], the EC50 came to 272 nM. This EC50 lies about 3-fold higher than the previous one.

Take `CCNC(=O)N1CCc2c(cccc2NCC(=O)N(CCNC)Cc2ccccc2C(F)(F)F)C1` [compound 403, 5-({[(2-Methylamino-ethyl)-(2-trifluoromethyl-benzyl)-carbamoyl]-methyl}-amino)-3,4-dihydro-1H-isoquinoline-2-carboxylic acid ethylamide]: the response was half-maximal at 24 nM (EC50).

As to `CN(C)CCN(Cc1ccccc1C(F)(F)F)C(=O)CNc1cccc2c1CCN(CCCF)C2` [Example 574, N-(2-Dimethylamino-ethyl)-2-[2-(3-fluoro-propyl)-1,2,3,4-tetrahydro-isoquinolin-5-ylamino]-N-(2-trifluoromethyl-benzyl)-acetamide], the EC50 stood at 6 nM.

As to `CN(C)CCN(Cc1ccccc1Cl)C(=O)/C=C/c1cccc2c1CCN(CC1CC1)C2` [compound 146, (E)-N-(2-Chloro-benzyl)-3-(2-cyclopropylmethyl-1,2,3,4-tetrahydro-isoquinolin-5-yl)-N-(2-dimethylamino-ethyl)-acrylamide], the EC50 worked out at 2 nM.

For the compound `CCC(=O)N1CCc2cccc(NCC(=O)N(CCN(C)C)Cc3ccccc3)c2C1` [Example 188, N-Benzyl-N-(2-dimethylamino-ethyl)-2-(2-propionyl-1,2,3,4-tetrahydro-isoquinolin-8-ylamino)-acetamide], a half-maximal response (EC50) required 71 nM.

`CCN1CCc2cccc(NCC(=O)N(CCN(C)C)Cc3cncc(Cl)c3)c2C1` [compound 533] showed an EC50 of 359 nM.

`O=C(Cc1cccc2c1CCN(CC1CC1)C2)N(CCN1CCCC1)Cc1ccccc1` [Example 3, N-Benzyl-2-(2-cyclopropylmethyl-1,2,3,4-tetrahydro-isoquinolin-5-yl)-N-(2-pyrrolidin-1-yl-ethyl)-acetamide] had an EC50 of 42 nM. This EC50 lies about 8.5-fold lower than the previous one.

On to `CCCN1CCc2c(cccc2NCC(=O)N(CCN(C)C)Cc2ccccc2C(F)(F)F)C1` [Example 573, N-(2-Dimethylamino-ethyl)-2-(2-propyl-1,2,3,4-tetrahydro-isoquinolin-5-ylamino)-N-(2-trifluoromethyl-benzyl)-acetamide], for which the EC50 was determined as 3 nM. Against the preceding compound, the EC50 is about 14-fold lower.

As for `CN(C)CCN(Cc1ccccc1)C(=O)CNc1cccc2c1CCN(CC1CCCCC1)C2` [compound 124], the EC50 stood at 52 nM.

With `CCNC(=O)N1CCc2c(cccc2NCC(=O)N(CCNC)Cc2ncccc2C(F)(F)F)C1` [compound 429, 5-({[(2-Methylamino-ethyl)-(3-trifluoromethyl-pyridin-2-ylmethyl)-carbamoyl]-methyl}-amino)-3,4-dihydro-1H-isoquinoline-2-carboxylic acid ethylamide], the 50% effective concentration (EC50) was found to be 7 nM.

Regarding `CN(C)CCN(Cc1ccccc1C(F)(F)F)C(=O)CNc1cc(C(F)(F)F)cc2c1CCN(CC1CC1)C2` [Example 296, 2-(2-Cyclopropylmethyl-7-trifluoromethyl-1,2,3,4-tetrahydro-isoquinolin-5-ylamino)-N-(2-dimethylamino-ethyl)-N-(2-trifluoromethyl-benzyl)-acetamide], the concentration giving a half-maximal response (EC50) worked out at 430 nM.

Compound `COCCN1CCc2c(cccc2NCC(=O)N(CCN2CCC(F)(F)CC2)Cc2ncccc2Cl)C1` [Example 305, N-(3-Chloro-pyridin-2-ylmethyl)-N-[2-(4,4-difluoro-piperidin-1-yl)-ethyl]-2-[2-(2-methoxy-ethyl)-1,2,3,4-tetrahydro-isoquinolin-5-ylamino]-acetamide] came in with an EC50 of 230 nM.
